In brackets after ≈: the same amount, converted by molar mass. Entries after “also recorded” stand apart in the source; their conditions may differ. Where two headings read alike, the source gives them in different places.
Experiments:
MRSA USA100 = assay: MIC against MRSA USA100; format: cell-based, Staphylococcus aureus; conditions: Staphylococcus aureus; TSB, 37 °C, 18–20 hours; read-out: MIC, Staphylococcus aureus isolate USA100
Procedure: (§1) 96-well plates were seeded with 5 × 10^5 CFU/mL in a volume of 100 μL of tryptic soy broth (TSB) per well for Staphylococcus aureus assays. Compounds were dissolved in DMSO and serially diluted as 1:2 dilutions to give the final concentration ranging from 0.25 to 128 μg/mL per well. […] Plates were incubated at 37 °C for 18–20 hours and MIC was determined by reading OD625. For M.avium and M.abscessus, 7H9 broth media was used for determination of MICs. The final concentration was 5 × 10^5 CFU/mL in each well. The plate was incubated at 37 °C for 7–8 days and MICs were determined using a Tecan microplate reader (OD625) and resazurin reduction assay.

MRSA USA200 = assay: MIC against MRSA USA200; format: cell-based, Staphylococcus aureus; conditions: Staphylococcus aureus; TSB, 37 °C, 18–20 hours; read-out: MIC, Staphylococcus aureus isolate USA200
Procedure: as §1

MRSA USA300 = assay: MIC against MRSA USA300; format: cell-based, Staphylococcus aureus; conditions: Staphylococcus aureus; TSB, 37 °C, 18–20 hours; read-out: MIC, Staphylococcus aureus isolate USA300
Procedure: as §1

MRSA USA400 = assay: MIC against MRSA USA400; format: cell-based, Staphylococcus aureus; conditions: Staphylococcus aureus; TSB, 37 °C, 18–20 hours; read-out: MIC, Staphylococcus aureus isolate USA400
Procedure: as §1

MRSA USA500 = assay: MIC against MRSA USA500; format: cell-based, Staphylococcus aureus; conditions: Staphylococcus aureus; TSB, 37 °C, 18–20 hours; read-out: MIC, Staphylococcus aureus isolate USA500
Procedure: as §1

MRSA USA700 = assay: MIC against MRSA USA700; format: cell-based, Staphylococcus aureus; conditions: TSB, 37 °C, 18–20 hours
Procedure: as §1

MRSA USA800 = assay: MIC against MRSA USA800; format: cell-based, Staphylococcus aureus; conditions: Staphylococcus aureus; TSB, 37 °C, 18–20 hours; read-out: MIC, Staphylococcus aureus isolate USA800
Procedure: as §1

[1] = system: Methicillin susceptible Staphylococcus aureus; assay: MIC against MSSA; format: cell-based; conditions: MSSA
Procedure: as §1

Enterococcus faecalis = assay: MIC against Enterococcus faecalis; format: cell-based; conditions: read-out: MIC, EF
Pseudomonas aeruginosa = assay: MIC against Pseudomonas aeruginosa; format: cell-based; conditions: read-out: MIC, PA
Mycobacterium avium = assay: MIC against Mycobacterium avium; format: cell-based; conditions: 7H9 broth, 7–8 days
Procedure: as §1

Mycobacterium abscessus = assay: MIC against Mycobacterium abscessus; format: cell-based; conditions: Mycobacteroides abscessus, 7H9 broth, 7–8 days
Procedure: as §1

MRSA strains = assay: MIC against MRSA strains (summary); format: cell-based, Staphylococcus aureus; conditions: range over MRSA strains
Procedure: as §1

Gram-positive bacteria = assay: MIC against Gram-positive bacteria (summary); format: cell-based; conditions: range over all tested Gram-positive bacteria
Procedure: as §1

MRSA USA 700 = assay: Menaquinone (MK-4) rescue, resazurin reduction assay, USA 700; format: cell-based; conditions: Staphylococcus aureus, read-out: MIC in the presence of MK-4
Procedure: Resazurin reduction assay was performed in 96-well plate. MRSA was cultured in TSB until OD625 reached 0.4~0.5 and diluted and plated in 96-well plate. […] The plate was incubated overnight at 37 °C followed by 20 μL of resazurin (0.15 mg/mL) was added to each well. The plate was incubated for 2–4 h and fluorescence was measured at 560 nm excitation/590 nm emission.

MRSA (USA200) = assay: Colony morphology / small colony variant formation on TSA; format: cell-based, Staphylococcus aureus
Procedure: MRSA was streaked and then incubated on tryptic soy agar (TSA) containing 0, 2, 4, 8 or 16 μg/mL of inhibitor 3a or 4 μg/mL of 7C or 0.025 μg/mL of rifampin at 37 °C for 96 h. MK-4 (100 μg/mL) was supplemented in TSA containing 8 μg/mL of 3a for the rescue experiment.

MRSA (USA700) biofilms = assay: S. aureus biofilm assay; format: cell-based, Staphylococcus aureus; conditions: USA700 biofilm, 24 h
Procedure: Biofilm assays were performed using a method previously described with modification. A 96 well plate was precoated with 20% human plasma (Sigma) in 0.05 M carbonate buffer, pH 9.6 at 4 °C for 24 h. MRSA was cultured overnight in TSB containing 3% NaCl and 0.5% glucose. The overnight culture was diluted with TSB/NaCl/Glucose media until OD600 reached 0.05. After carefully removing the liquid from the 96 well plate, 200 μL of MRSA dilution was added to each well in triplicate. The plate was incubated at 37 °C for 24 h and carefully washed with PBS twice. MH broth (200 μL) containing a compound was added to each well in triplicate and incubated at 37 °C for 24 h. After washing with PBS twice, the biofilm was scraped in 100 μL of PBS and serially diluted and plated on TSA to determine CFU.

MRSA (USA 700) = assay: Activity against extracellular MRSA in the presence of human MDMs; format: cell-based, Staphylococcus aureus; conditions: extracellular MRSA USA700, MIC and MIC/4, 24 h
Procedure: Human monocyte-derived macrophages (MDM) were cultured at a concentration of 1 × 10^6 cells/mL/well in a 24 well plate. MRSA (USA 700) was cultured in TSB (10 mL) until OD625 reached 0.4~0.5 and then centrifuged at 14,000 rpm for 10 min. The pellets were resuspended in 10 mL of DMEM supplemented with 10% human serum (no antibiotics). The bacteria medium was diluted with DMEM containing an inhibitor to obtain 1 × 10^6 CFU/mL and added to human MDMs (MOI = 1) in a 24-well plate. After 24 hour infection at 37 °C, the supernatants were serially diluted for CFU determination (TSA plates).

TNF-α = TNF-α release from THP-1 macrophages; format: cell-based, human; conditions: concentration equal to MIC, 24 h, 37 °C
Procedure: (§2) THP-1 cells were differentiated into macrophages by treatment with PMA (7.5 ng/mL). Levels of the human cytokines (GM-CSF, IFN-γ, IL-1β, IL-2, IL-4, IL-5, IL-6, IL-8, IL-10, TNF-α) released from THP-1 macrophages were determined using a multiplex kit from Life Technologies according to the manufacturer’s instructions. In brief, the 96 well filter plate was pre-wetted, and then 25 μL of the diluted bead suspension was added to each well and washed twice. 100 μL of samples and standards were added to each well. The plate was incubated at room temperature for 2 h on a shaker. Following washing, biotinylated detection antibody was added and incubated for 1 h. After washing, streptavidin-RPE was added to each well and incubated for 0.5 h. The plate was again washed, resuspended in 100 μL of the washing buffer, and read on the Luminex xMAP™ system (Bio-Rad, AtheNA multi-Lyte™, USA). All samples were run in triplicate and standards were run in duplicate.

IL-6 = IL-6 release from THP-1 macrophages; format: cell-based, human; conditions: concentration equal to MIC, 24 h, 37 °C
Procedure: as §2

IL-1β = IL-1β release from THP-1 macrophages; format: cell-based, human; conditions: concentration equal to MIC, 24 h, 37 °C
Procedure: as §2

Q: With `COc1ccc2ccc(OCCCCCCCCNCCc3ccc(F)cc3)cc2c1` [3a] as the compound, how does the MIC (MRSA USA100) read?
A: 4 µg/mL (≈ 9.44 µM)

Q: And the MIC (MRSA USA200)?
A: 2 µg/mL (≈ 4.72 µM)

Q: And the MIC (MRSA USA300)?
A: 4 µg/mL (≈ 9.44 µM)

Q: And the MIC (MRSA USA400)?
A: 4 µg/mL (≈ 9.44 µM)

Q: What about the MIC (MRSA USA500) of the same compound?
A: 4 µg/mL (≈ 9.44 µM)

Q: And the MIC (MRSA USA700; Staphylococcus aureus, read-out: MIC, Staphylococcus aureus isolate USA700)?
A: 4 µg/mL (≈ 9.44 µM)

Q: And the “MIC, Staphylococcus aureus isolate USA700” value (MRSA USA700)?
A: 4 µg/mL (≈ 9.44 µM)

Q: And the MIC (MRSA USA800)?
A: 6 µg/mL (≈ 14.2 µM)

Q: What about the MIC [1] of the same compound?
A: 4 µg/mL (≈ 9.44 µM)

Q: What about the MIC (Enterococcus faecalis) of the same compound?
A: 1 µg/mL (≈ 2.36 µM)

Q: What about the MIC (Pseudomonas aeruginosa) of the same compound?
A: > 64 µg/mL

Q: And the MIC (Mycobacterium avium)?
A: 2 µg/mL (≈ 4.72 µM)

Q: What about the MIC (Mycobacterium abscessus) of the same compound?
A: 6 µg/mL (≈ 14.2 µM)

Q: And the “MICs against MRSA strains (range)” value (MRSA strains)?
A: 1 to 8 µg/mL

Q: And the “MIC values against all Gram-positive bacteria (range)” value (Gram-positive bacteria)?
A: 0.5 to 16 µg/mL

Q: And the MIC (MRSA USA 700; USA 700, 0.05 mg/mL MK-4)?
A: 16 µg/mL

Q: And the MIC (MRSA USA 700; USA 700, 0.5 mg/mL MK-4)?
A: 64 µg/mL

Q: And the “colonies on MK-4 supplemented agar plate” value (MRSA (USA200); USA200, 8 μg/mL inhibitor + MK-4 100 μg/mL)?
A: showed wild-type colonies

Q: And the “colonies on agar plates” value (MRSA (USA200); USA200, more than 2× MIC, after 24 h)?
A: No colonies were observed

Q: What about the “induction of small colony variants (SCV)” value (MRSA (USA200); USA200 on TSA, 37 °C, up to 96 h (3a 4–16 μg/mL), 72 h (7c, rifampin)) of the same compound?
A: did not induce SCV

Q: What about the “fold decrease in MRSA growth from the treated biofilm” value (shortened to “fold decrease in MRSA growth”) (MRSA (USA700) biofilms; 0.03 mg/mL) of the same compound?
A: 10^4 fold

Q: And the “fold decrease in MRSA growth” value (MRSA (USA700) biofilms; 0.5 mg/mL)?
A: 10^6 fold

Q: What about the “fold decrease in MRSA growth” value (MRSA (USA700) biofilms; 1 mg/mL) of the same compound?
A: 10^7 fold

Q: And the “increase of antibacterial activity compared to activities with MDMs” value (MRSA (USA 700))?
A: 1.5 – 3 fold

Q: What about the “increase of antibacterial activity compared to activities without MDMs” value (MRSA (USA 700)) of the same compound?
A: 6–12 fold

Q: What about the “TNF-α released from THP-1 macrophages” value (TNF-α) of the same compound?
A: decreased

Q: And the “IL-6 released from THP-1 macrophages” value (IL-6)?
A: decreased; also recorded: significantly reduced

Q: And the “IL-1β released from THP-1 macrophages” value (IL-1β)?
A: stimulated the release

From publication PMC5223195, “Novel long-chain compounds with both immunomodulatory and MenA inhibitory activities against Staphylococcus aureus and its biofilm” (Scientific Reports, 2017)
